Source: ChEMBL document CHEMBL4825691, “Antimicrobial, modulatory, and antibiofilm activity of tt-farnesol on bacterial and fungal strains of importance to human health” (2021)
≈ marks a conversion by molar mass, not a printed value.

What was measured:
Type in all cases: functional
Escherichia coli [1] = experiment: Antibacterial activity against Escherichia coli ATCC 25922 assessed as inhibition of bacterial growth incubated for 24 hrs by microdilution assay
Enterococcus faecalis [2] = experiment: Antibacterial activity against Enterococcus faecalis ATCC 6569 assessed as inhibition of bacterial growth incubated for 24 hrs by microdilution assay
Enterococcus faecalis [3] = experiment: Antibacterial activity against Enterococcus faecalis ATCC 29212 assessed as inhibition of bacterial growth incubated for 24 hrs by microdilution assay
Staphylococcus aureus [4] = experiment: Ratio of MBC to MIC against Staphylococcus aureus MED 55
Acinetobacter baumannii = experiment: Antibacterial activity against Acinetobacter baumannii ATCC 19606 assessed as inhibition of bacterial growth incubated for 24 hrs by microdilution assay; conditions: ATCC 19606 = CIP 70.34 = JCM 6841
Klebsiella pneumoniae [5] = experiment: Antibacterial activity against Klebsiella pneumoniae ATCC 700603 assessed as inhibition of bacterial growth incubated for 24 hrs by microdilution assay
Streptococcus agalactiae [6] = experiment: Antibacterial activity against Streptococcus agalactiae ATCC 13813 assessed as inhibition of bacterial growth incubated for 24 hrs by microdilution assay
Streptococcus mutans = experiment: Antibacterial activity against Streptococcus mutans ATCC 25175 assessed as inhibition of bacterial growth incubated for 24 hrs by microdilution assay
Enterococcus faecalis [7] = experiment: Ratio of MBC to MIC against Enterococcus faecalis ATCC 51299
Streptococcus pyogenes [8] = experiment: Antibiofilm activity against drug-resistant Streptococcus pyogenes ATCC 19615 assessed as inhibition of biofilm formation incubated for 24 hrs by crystal violet staining based microtiter plate method
Streptococcus sobrinus [9] = experiment: Ratio of MBC to MIC against Streptococcus sobrinus ATCC 27351
[10] = system: Staphylococcus epidermidis; experiment: Antimicrobial activity against Staphylococcus epidermidis 70 D assessed assessed as reduction in bacterial growth at 1/8 times of drug MIC in the presence of vancomycin by microdilution method
Enterococcus faecalis [11] = experiment: Antimicrobial activity against Enterococcus faecalis ATCC 51299 assessed assessed as reduction in bacterial growth at 1/8 times of drug MIC in the presence of Teicoplanin by microdilution method
[12] = system: Stenotrophomonas maltophilia; experiment: Antibacterial activity against Stenotrophomonas maltophilia EM 0104assessed as inhibition of bacterial growth incubated for 24 hrs by microdilution assay
[13] = system: Staphylococcus epidermidis; experiment: Antimicrobial activity against Staphylococcus epidermidis 70 D assessed assessed as reduction in bacterial growth at 1/4 times of drug MIC in the presence of vancomycin by microdilution method
[14] = system: Staphylococcus epidermidis; experiment: Bactericidal activity against Staphylococcus epidermidis ATCC 12228 assessed as bacterial killing incubated for 24 hrs by microdilution assay
Staphylococcus aureus [15] = experiment: Antibiofilm activity against drug-resistant Staphylococcus aureus ATCC 43300 assessed as inhibition of biofilm formation incubated for 24 hrs by crystal violet staining based microtiter plate method
Staphylococcus aureus [16] = experiment: Antimicrobial activity against Staphylococcus aureus ATCC […] assessed assessed as reduction in bacterial growth at 1/2 times of drug MIC in the presence of Oxacillin by microdilution method
Escherichia coli [17] = experiment: Antibacterial activity against Escherichia coli EPEC E234969 assessed as inhibition of bacterial growth incubated for 24 hrs by microdilution assay
Staphylococcus aureus [18] = experiment: Antimicrobial activity against Staphylococcus aureus MED 55 assessed assessed as reduction in bacterial growth at 1/8 times of drug MIC in the presence of vancomycin by microdilution method
Enterococcus durans [19] = experiment: Antimicrobial activity against Enterococcus durans BIO 0114 assessed assessed as reduction in bacterial growth at 1/8 times of drug MIC in the presence of Teicoplanin by microdilution method
Klebsiella pneumoniae [20] = experiment: Antibacterial activity against Klebsiella pneumoniae ATCC 1705 assessed as inhibition of bacterial growth incubated for 24 hrs by microdilution assay
Streptococcus agalactiae [21] = experiment: Antibiofilm activity against drug-resistant Streptococcus agalactiae ATCC 13813 assessed as inhibition of biofilm formation incubated for 24 hrs by crystal violet staining based microtiter plate method
Streptococcus pyogenes [22] = experiment: Antimicrobial activity against Streptococcus pyogenes ATCC 19615 assessed assessed as reduction in bacterial growth at 1/8 times of drug MIC in the presence of Ampicillin by microdilution method
Staphylococcus aureus [23] = experiment: Antibacterial activity against Staphylococcus aureus ATCC 29213 assessed as inhibition of bacterial growth incubated for 24 hrs by microdilution assay
Staphylococcus aureus [24] = experiment: Bactericidal activity against Staphylococcus aureus MED 55 assessed as bacterial killing incubated for 24 hrs by microdilution assay
Enterococcus faecalis [25] = experiment: Antibiofilm activity against drug-resistant Enterococcus faecalis ATCC 51299 assessed as inhibition of biofilm formation incubated for 24 hrs by crystal violet staining based microtiter plate method
Staphylococcus aureus [26] = experiment: Antimicrobial activity against Staphylococcus aureus ATCC 29213 assessed assessed as reduction in bacterial growth at 1/4 times of drug MIC in the presence of vancomycin by microdilution method
Enterococcus durans [27] = experiment: Antimicrobial activity against Enterococcus durans BIO 0114 assessed assessed as reduction in bacterial growth at 1/4 times of drug MIC in the presence of Teicoplanin by microdilution method
Staphylococcus aureus [28] = experiment: Antibacterial activity against Staphylococcus aureus MED 55 assessed as inhibition of bacterial growth incubated for 24 hrs by microdilution assay
[29] = system: Staphylococcus epidermidis; experiment: Antimicrobial activity against Staphylococcus epidermidis ATCC 12228 assessed assessed as reduction in bacterial growth at 1/8 times of drug MIC in the presence of Oxacillin by microdilution method
Streptococcus sobrinus [30] = experiment: Antimicrobial activity against Streptococcus sobrinus ATCC 27351 assessed assessed as reduction in bacterial growth at 1/8 times of drug MIC in the presence of Ampicillin by microdilution method
Staphylococcus aureus [31] = experiment: Antimicrobial activity against […] assessed assessed as reduction in bacterial growth at 1/4 times of drug MIC in the presence of Oxacillin by microdilution method
Shigella flexneri = experiment: Antibacterial activity against Shigella flexneri CCCD S006 assessed as inhibition of bacterial growth incubated for 24 hrs by microdilution assay
Escherichia coli [32] = experiment: Antibacterial activity against Escherichia coli EHEC 933 assessed as inhibition of bacterial growth incubated for 24 hrs by microdilution assay
Streptococcus pyogenes [33] = experiment: Antimicrobial activity against Streptococcus pyogenes ATCC 19615 assessed assessed as reduction in bacterial growth at 1/4 times of drug MIC in the presence of Ampicillin by microdilution method
Staphylococcus aureus [34] = experiment: Antimicrobial activity against Staphylococcus aureus MED 55 assessed assessed as reduction in bacterial growth at 1/4 times of drug MIC in the presence of vancomycin by microdilution method
[35] = system: Staphylococcus epidermidis; experiment: Antibacterial activity against Staphylococcus epidermidis ATCC 12228 assessed as inhibition of bacterial growth incubated for 24 hrs by microdilution assay
Staphylococcus aureus [36] = experiment: Antimicrobial activity against Staphylococcus aureus ATCC 29213 assessed assessed as reduction in bacterial growth at 1/8 times of drug MIC in the presence of vancomycin by microdilution method
[37] = system: Staphylococcus epidermidis; experiment: Antibacterial activity against Staphylococcus epidermidis 70 D assessed as inhibition of bacterial growth incubated for 24 hrs by microdilution assay
Staphylococcus aureus [38] = experiment: Ratio of MBC to MIC against Staphylococcus aureus ATCC 43300

CC(C)=CCC/C(C)=C/CC/C(C)=C/CO [FARNESOL]
MIC (Escherichia coli [1]): > 1020 µg/mL | MIC (Enterococcus faecalis [2]): > 1020 µg/mL | MIC (Enterococcus faecalis [3]): > 1020 µg/mL | Ratio (Staphylococcus aureus [4]): 2 | MIC (Acinetobacter baumannii): > 1020 µg/mL | MIC (Klebsiella pneumoniae [5]): > 1020 µg/mL | MIC (Streptococcus agalactiae [6]): 16 µg/mL (≈ 72 µM) | MIC (Streptococcus mutans): 128 µg/mL (≈ 576 µM) | Ratio (Enterococcus faecalis [7]): >4 | MIC (Streptococcus pyogenes [8]): 16 µg/mL (≈ 72 µM) | Ratio (Streptococcus sobrinus [9]): 2 | MIC [10]: 2 µg/mL | MIC (Enterococcus faecalis [11]): 1 µg/mL | MIC [12]: > 1020 µg/mL | MIC [13]: 2 µg/mL | MBC [14]: > 128 µg/mL | MIC (Staphylococcus aureus [15]): 32 µg/mL (≈ 144 µM) | MIC (Staphylococcus aureus [16]): 1 µg/mL | MIC (Escherichia coli [17]): > 1020 µg/mL | MIC (Staphylococcus aureus [18]): 2 µg/mL | MIC (Enterococcus durans [19]): 1 µg/mL | MIC (Klebsiella pneumoniae [20]): > 1020 µg/mL | MIC (Streptococcus agalactiae [21]): 4 µg/mL (≈ 18 µM) | MIC (Streptococcus pyogenes [22]): 0.063 µg/mL | MIC (Staphylococcus aureus [23]): > 1020 µg/mL | MBC (Staphylococcus aureus [24]): 128 µg/mL (≈ 576 µM) | MIC (Enterococcus faecalis [25]): 128 µg/mL (≈ 576 µM) | MIC (Staphylococcus aureus [26]): 2 µg/mL | MIC (Enterococcus durans [27]): 1 µg/mL | MIC (Staphylococcus aureus [28]): 64 µg/mL (≈ 288 µM) | MIC [29]: 0.25 µg/mL | MIC (Streptococcus sobrinus [30]): 0.125 µg/mL | MIC (Staphylococcus aureus [31]): 8 µg/mL | MIC (Shigella flexneri): > 1020 µg/mL | MIC (Escherichia coli [32]): > 1020 µg/mL | MIC (Streptococcus pyogenes [33]): 0.063 µg/mL | MIC (Staphylococcus aureus [34]): 2 µg/mL | MIC [35]: 32 µg/mL (≈ 144 µM) | MIC (Staphylococcus aureus [36]): 2 µg/mL | MIC [37]: 64 µg/mL (≈ 288 µM) | Ratio (Staphylococcus aureus [38]): >4
